# Patent publication US10253004B2, “Indanylaminopyrazinylcyclopropanecarboxylic acids, pharmaceutical compositions and uses thereof” (Boehringer Ingelheim International GmbH, priority 2017, dated 2019)
# Like-named read-outs stand apart in the source and are kept apart here.
# Key:
# human GPR40 receptor = human GPR40 receptor (Homo sapiens (Human), UniProt O14842); experiment: IP1 accumulation measurements using the IPOne assay system; format: cell-based
# Method: IP1 accumulation measurements using the IPOne assay system—1321N1 cells stably expressing human GPR40 receptor (Euroscreen, Belgium) are seeded 24 h before the assay in white 384-well plates in culture medium containing 10% FCS, 1% Na-Pyruvate and 400 μg/mL G418. IP1 is assayed according to the manufacturer's description (Cisbio Bioassays, France). In brief, the assay is started by substitution of the culture medium by stimulation buffer (Hepes 10 mM, CaCl2 1 mM, MgCl2 0.5 mM, KCl 4.2 mM, NaCl 146 mM, glucose 5.5 mM and LiCl 50 mM, pH 7.4). Cells are stimulated for 1 h at 37° C., 5% CO2 by addition of the compounds that are diluted in stimulation buffer containing LiCl. Assays are stopped by adding HTRF-conjugates (IP1-d2 and Anti-IP1 cryptate Tb) and lysis buffer, provided by the manufacturer. After an incubation time of 1 h at room temperature plates are measured using an EnVision™, Perkin Elmer. The obtained fluorescence ratios at 665/615 […] are then used to calculate the pEC50 values using Assay Explorer 3.3 Software (Accelrys, Inc.) by interpolation using an IP1 reference curve and subsequent sigmoidal curve fitting allowing for a variable hill slope.
# [1] = Chemical stability (degradation kinetics) in acidic aqueous media, HPLC recovery; format: physicochemical; conditions: for Amount of degradation after 2 h: pH ca. 1.2, 37° C., acetonitrile/0.1 M aqueous HCl (2:3); for Chemical stability at pH ca. 1.2: degradation after 2 h at 37° C.: pH ca. 1.2, 2 h
# Method: Degradation kinetics is used to simulate chemical stability of compounds in the acidic part of the gastro intestinal tract. […] Their application as medical drugs to treat human diseases is therefore less restricted and troublesome.
# The chemical stability of the compounds of the invention at pH value of ca. 1.2 is determined as follows:
# Compound is dissolved in an HPLC vial either in a mixture of acetonitrile/0.1 M aqueous HCl (2:3; pH ca. 1.2) or in a mixture of acetonitrile/Mcllvaine buffer pH 7.4 (2:3) to get a concentration of approximately 0.25 mg/ml. The vial was then transferred into an HPLC autosampler system and maintained at a temperature of 37° C. A first sample is taken and injected immediately into a standard HPLC system with a UV DAD detector. Further samples are injected after 2, 4, 6, 8 and 10 hours. Amount of degraded compound is measured by determining the recovery rate of compound [%] for each injection using an HPLC standard gradient method. Therefore the peak area of the main peak for the first injection (AUt0) is determined and set as 100%. Peak area of the main peak is determined also for the further injections (AUtn, n=2, 4, 6, 8, 10) and expressed as fraction of […] [%].
# [2] = Aqueous solubility in buffer vs acetonitrile/water, LC-UV; format: physicochemical; conditions: kinetic from dmso stock, pH 6.8 buffer, 24 h shaking, 2.5% DMSO
# Method: The aqueous solubility of the compounds of the invention is determined by comparing the amount dissolved in buffer to the amount in an acetonitrile/water (1/1) solution. Starting from a 10 mM DMSO stock solution aliquots are diluted with acetonitrile/water (1/1) or buffer, respectively. After 24 h of shaking, the solutions are filtrated and analyzed by LC-UV. The amount dissolved in buffer is compared to the amount in the acetonitrile solution.
# Solubility is usually being measured from 0.001 to 0.125 mg/mL at a DMSO concentration of 2.5%. If more than 90% of the compound is dissolved in buffer, the value is marked with “>”.
# [3] = biological target: cytochrome P450 2C8-isoenzyme (Homo sapiens (Human), UniProt P10632); experiment: Inhibition of CYP-2C8 (amodiaquine deethylation, human liver microsomes); format: in vitro ADME; conditions: amodiaquine 1 μM, 37° C.
# Chain of cytochrome P450 2C8-isoenzyme (P10632 whole entry): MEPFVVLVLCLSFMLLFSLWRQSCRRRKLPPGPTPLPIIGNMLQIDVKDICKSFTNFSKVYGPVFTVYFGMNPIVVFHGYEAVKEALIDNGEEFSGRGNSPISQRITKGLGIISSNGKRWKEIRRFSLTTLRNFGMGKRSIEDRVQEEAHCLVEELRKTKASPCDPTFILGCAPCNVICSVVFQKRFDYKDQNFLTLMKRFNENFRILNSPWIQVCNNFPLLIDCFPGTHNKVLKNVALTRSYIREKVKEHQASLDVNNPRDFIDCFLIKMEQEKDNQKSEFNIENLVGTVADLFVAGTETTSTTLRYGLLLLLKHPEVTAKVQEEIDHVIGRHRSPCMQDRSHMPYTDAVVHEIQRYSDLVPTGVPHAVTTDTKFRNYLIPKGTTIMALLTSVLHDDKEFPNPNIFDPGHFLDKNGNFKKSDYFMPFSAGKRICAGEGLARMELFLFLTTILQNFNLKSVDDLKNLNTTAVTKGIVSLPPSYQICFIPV
# Method: (§1) All assays are carried out on a robotic system in 96 well plates. The final incubation volume contains TRIS buffer (0.1 M), MgCl2 (5 mM), human liver microsomes (0.05 mg/mL), amodiaquine (1 μM) and the test compound at five different concentrations or no compound (high control) in duplicate (e.g. highest concentration 10-50 μM with subsequent serial 1:4 dilutions). Following a short preincubation period, reactions are started with the cofactor (NADPH, 1 mM) and stopped by cooling the incubation down to 8° C. and subsequently by addition of one volume of acetonitrile. An internal standard solution—the stable isotope d5-desethylamodiaquine—is added after quenching of incubations. Peak area analyte (=metabolite formed) and internal standard is determined by LC-MS/MS. The resulting peak area ratio analyte to internal standard in these incubations is compared to a control activity containing no test compound. Within each of the assay runs, the IC50 of a positive control inhibitor (Montelukast) is determined.
# [4] = biological target: cytochrome P450 2C9-isoenzyme (Homo sapiens (Human), UniProt P11712); experiment: Inhibition of CYP-2C9 (diclofenac hydroxylation, human liver microsomes); format: in vitro ADME; conditions: diclofenac 10 μM, 37° C.
# Chain of cytochrome P450 2C9-isoenzyme (P11712 whole entry): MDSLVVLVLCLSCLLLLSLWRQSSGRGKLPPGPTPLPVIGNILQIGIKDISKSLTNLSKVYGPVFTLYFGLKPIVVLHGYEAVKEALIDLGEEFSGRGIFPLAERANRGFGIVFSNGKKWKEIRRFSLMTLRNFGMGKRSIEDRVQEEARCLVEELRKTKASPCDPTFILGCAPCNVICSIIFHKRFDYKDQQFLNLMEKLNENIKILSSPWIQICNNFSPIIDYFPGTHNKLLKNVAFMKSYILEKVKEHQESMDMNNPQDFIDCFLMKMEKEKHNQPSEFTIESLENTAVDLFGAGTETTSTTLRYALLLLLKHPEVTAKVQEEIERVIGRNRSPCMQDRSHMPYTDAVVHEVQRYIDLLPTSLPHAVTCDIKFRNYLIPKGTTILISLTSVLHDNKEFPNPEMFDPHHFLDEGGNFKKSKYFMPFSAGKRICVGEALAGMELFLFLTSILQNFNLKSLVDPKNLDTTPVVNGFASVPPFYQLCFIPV
# Method: as §1, with “(0.1” for “(0.05”, “diclofenac (10” for “amodiaquine (1”, “(e.g.,” for “(e.g.”, “^13C6-hydroxydiclofenac—is” for “d5-desethylamodiaquine—is”, “(sulfaphenazole)” for “(Montelukast)”
# [5] = 1321N1 cells stably expressing human GPR40, IP1 accumulation, read-out: EC50
# [6] = given as IC50, own-compound values equal the EC50 of Table 2, read-out: GPR40: IC50
# Chain of human GPR40 receptor (O14842 whole entry): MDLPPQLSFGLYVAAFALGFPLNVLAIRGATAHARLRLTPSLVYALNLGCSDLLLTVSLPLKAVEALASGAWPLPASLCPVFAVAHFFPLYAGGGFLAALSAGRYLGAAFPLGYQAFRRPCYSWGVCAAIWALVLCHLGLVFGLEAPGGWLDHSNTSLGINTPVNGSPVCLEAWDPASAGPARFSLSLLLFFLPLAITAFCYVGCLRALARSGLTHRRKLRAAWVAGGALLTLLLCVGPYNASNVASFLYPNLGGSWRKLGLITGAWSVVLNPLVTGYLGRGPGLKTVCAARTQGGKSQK
SMILES,EC50 (human GPR40 receptor; [5]) [nM],EC50 (human GPR40 receptor; [6]) [nM],Amount of degradation after 2 h [1],Chemical stability at pH ca. 1.2: degradation after 2 h at 37° C. [1] [%],"solubility at 24 h ([2]; buffer pH 6.8, aqueous buffer) [µg/mL]",IC50 [3] [µM],IC50 [4] [µM],solubility at 24 h ([2]; aqueous buffer) [µg/mL]
"Cc1cc(OCCC(C)(C)O)cc(C)c1-c1ccc(F)c2c1CC[C@H]2Nc1cnc([C@H]2C[C@@H]2C(=O)O)cn1 [Example 2, (1S,2S)-2-(5-{(R)-7-Fluoro-4-[4-(3-hydroxy-3-methyl-butoxy)-2,6-dimethyl-phenyl]-indan-1-ylamino}-pyrazin-2-yl)-cyclopropanecarboxylic acid]",4,4,<0.5%,< 0.5,87,> 50,> 50,–
"Cc1cc(OCCCS(C)(=O)=O)cc(C)c1-c1ccc(F)c2c1CC[C@H]2Nc1cnc([C@H]2C[C@@H]2C(=O)O)cn1 [Example 4, (1S,2S)-2-(5-{(R)-7-Fluoro-4-[4-(3-methanesulfonyl-propoxy)-2,6-dimethyl-phenyl]-indan-1-ylamino}-pyrazin-2-yl)-cyclopropanecarboxylic acid]",8,8,<0.5%,< 0.5,92,> 50,> 50,–
"Cc1cc(OCCC(C)(C)O)cc(C)c1-c1cccc2c1CC[C@H]2Nc1cnc([C@H]2C[C@@H]2C(=O)O)cn1 [Example 7, (1S,2S)-2-(5-{(R)-4-[4-(3-Hydroxy-3-methyl-butoxy)-2,6-dimethyl-phenyl]-indan-1-ylamino}-pyrazin-2-yl)-cyclopropanecarboxylic acid]",4,–,<1%,–,–,–,–,–
"Cc1cc(OCCCS(C)(=O)=O)cc(C)c1-c1ccc(F)c2c1CC[C@H]2Oc1ccc([C@H]2C[C@@H]2C(=O)O)cc1 [Example 11 in WO 2013/178575, reference compound]",–,8,5%,5,–,12,17,–
"Cc1cc(OCCC(C)(C)O)cc(C)c1-c1ccc(F)c2c1CC[C@H]2Oc1ccc([C@H]2C[C@@H]2C(=O)O)cc1 [Example 17 in WO 2013/178575, reference compound]",–,–,8%,8,< 1,–,–,–
"Cc1cccc(C)c1-c1ccc(F)c2c1CC[C@H]2Oc1ccc(C2CC2C(=O)O)cc1 (stereo partly drawn) [Example 33 in WO 2013/178575, reference compound]",–,–,8%,–,–,–,–,–
Cc1cc(-c2nnn(C)n2)cc(C)c1-c1ccc(F)c2c1CC[C@H]2Nc1cnc([C@H]2C[C@@H]2C(=O)O)cn1 [Example 35],–,2,<1%,< 1,–,21,32,34
"Cc1cc(-c2nnn(C)n2)cc(C)c1-c1ccc(F)c2c1CC[C@H]2Oc1ccc([C@H]2C[C@@H]2C(=O)O)cc1 [Example 45 in WO 2013/178575, reference compound]",–,–,–,–,< 1,–,–,–
"Cc1c(C#N)cccc1-c1ccc(F)c2c1CC[C@H]2Oc1ccc([C@H]2C[C@@H]2C(=O)O)cc1 [Example 54 in WO 2013/178575, reference compound]",–,–,2.5%^,–,–,–,–,–
